The source of these data is US20230279020A9, “CARM1 INHIBITORS AND USES THEREOF” (Epizyme, Inc., priority 2013, published 2023).

The target of this assay is Human CARM1 (PRMT4) (Homo sapiens (Human), UniProt Q86X55). Nature of the assay: CARM1 enzyme assay on peptide substrate (3H-SAM Flashplate). The settings on record: Biochemical potencies, classification codes; read-out: Biochem IC50.
Human CARM1 (PRMT4), sequence (Q86X55 other isoform, or with tags, fused parts or gaps isoform Q86X55-1): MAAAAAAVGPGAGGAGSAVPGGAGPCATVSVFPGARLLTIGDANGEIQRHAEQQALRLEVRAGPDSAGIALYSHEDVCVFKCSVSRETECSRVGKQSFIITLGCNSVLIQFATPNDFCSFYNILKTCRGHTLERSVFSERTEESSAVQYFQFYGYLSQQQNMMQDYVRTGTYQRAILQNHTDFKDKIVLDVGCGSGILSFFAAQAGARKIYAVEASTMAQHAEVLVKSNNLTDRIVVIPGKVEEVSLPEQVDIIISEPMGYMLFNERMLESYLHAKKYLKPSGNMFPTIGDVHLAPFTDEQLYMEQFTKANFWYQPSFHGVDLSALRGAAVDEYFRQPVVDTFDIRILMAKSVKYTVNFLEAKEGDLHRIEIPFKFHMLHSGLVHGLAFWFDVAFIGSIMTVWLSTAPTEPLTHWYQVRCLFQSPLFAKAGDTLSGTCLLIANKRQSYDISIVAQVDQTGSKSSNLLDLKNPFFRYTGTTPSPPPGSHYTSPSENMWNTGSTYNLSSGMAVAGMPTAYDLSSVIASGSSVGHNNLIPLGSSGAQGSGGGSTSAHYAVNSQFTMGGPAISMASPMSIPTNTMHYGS
As a reminder, the IC50 is the midpoint of a concentration-inhibition curve. Regarding `CCOC(=O)N1CCC[C@@H]1CCNc1nc(-c2cc(OC[C@H](O)CNC)ccc2Cl)nc(-c2c(C)noc2C)c1C` [Example 136-3], the IC50 was below 100 nM.

`CNCC(O)COc1ccc(Cl)c(-c2nc(NC3(C)CCOCC3)c(Cl)c(-c3c(C)noc3C)n2)c1` (stereo not drawn) [Example 137-1a]: the IC50 was below 100 nM.

For the molecule `CCOC(=O)N1CCC[C@H]1CCNc1nc(-c2cc(OC[C@H](O)CNC)ccc2Cl)nc(-c2c(C)noc2C)c1C` [Example 137-3], the IC50 is below 100 nM.

On to `CNC[C@H](O)COc1ccc(Cl)c(-c2nc(-c3c(C)noc3C)c(C)c(N3CCC4(CCN(C5CC5)C4)C3)n2)c1` (stereo partly drawn) [Example 138-1a], for which the IC50 was below 100 nM.

As to `CNC[C@@H](O)COc1ccc(Cl)c(-c2nc(-c3c(C)noc3C)c(C)c(N3CCC4(CCN(C5CC5)C4)C3)n2)c1` (stereo partly drawn) [Example 138-3], the IC50 was below 100 nM.

Turning to `CNCC(O)COc1cccc(-c2nc(-c3c(C)noc3C)cc(N3CCN(CCOC)CC3)n2)c1` (stereo not drawn) [Example 139-1a], the IC50 is below 100 nM.

As for `CNC[C@@H](O)COc1ccc(Cl)c(-c2nc(N[C@@H]3CCN(C4CC4)[C@H](C)C3)c(C)c(-c3c(C)noc3C)n2)c1` [Example 139-3], the IC50 was below 100 nM.

As to `CNCC(O)COc1cccc(-c2nc(NCC3(N(C)C)CCOCC3)c(C)c(-c3c(C)noc3C)n2)c1` (stereo not drawn) [Example 140-1a], the IC50 is below 100 nM.

Consider `CNC[C@@H](O)COc1ccc(Cl)c(-c2nc(-c3c(C)noc3C)c(C)c(N3Cc4cnn(C)c4C3)n2)c1` [Example 140-3], for which the IC50 was below 100 nM.

As to `CCC1(CNc2nc(-c3cccc(OCC(O)CNC)c3)nc(-c3c(C)noc3C)c2C)CCOCC1` (stereo not drawn) [Example 141-1a], the IC50 is below 100 nM.

For `CNC[C@@H](O)COc1ccc(Cl)c(-c2nc(-c3c(C)noc3C)c(C)c(N3CCc4nc(C)sc4C3)n2)c1` [Example 141-3], the 50% inhibitory concentration (IC50) is below 100 nM.

For the molecule `CNCC(O)COc1cccc(-c2nc(NCC3CCOCC3)c(Cl)c(-c3c(C)noc3C)n2)c1` (stereo not drawn) [Example 142-1a], the IC50 was below 100 nM.

For the molecule `CNC[C@@H](O)COc1ccc(Cl)c(-c2nc(-c3c(C)noc3C)c(C)c(N3Cc4nccnc4C3)n2)c1` [Example 142-3], the half-maximal inhibitory concentration (IC50) was below 100 nM.

Take `CNCC(O)COc1cccc(-c2nc(NCC3CCOCC3)c(F)c(-c3c(C)noc3C)n2)c1` (stereo not drawn) [Example 143-1a]: the half-inhibitory concentration (IC50) is below 100 nM.

Regarding `CNC[C@@H](O)COc1ccc(Cl)c(-c2nc(N[C@H]3C[C@H](OC)C3)c(C)c(-c3c(C)noc3C)n2)c1` [Example 143-3], the IC50 was below 100 nM.

On to `CNCC(O)COc1cccc(-c2nc(-c3c(C)noc3C)cc(N3CCN(CC(F)(F)F)[C@H](C)C3)n2)c1` (stereo partly drawn) [Example 144-1a], for which the IC50 is below 100 nM.

On to `CNC[C@@H](O)COc1ccc(Cl)c(-c2nc(N[C@H]3C[C@@H](OC)C3)c(C)c(-c3c(C)noc3C)n2)c1` [Example 144-3], for which the IC50 is below 100 nM.

For the molecule `CNCC(O)COc1cccc(-c2nc(-c3c(C)noc3C)cc(N3CCN(CCF)[C@H](C)C3)n2)c1` (stereo partly drawn) [Example 145-1a], the IC50 was below 100 nM.

With `CNCC(O)COc1cccc(-c2nc(NC3CCOCC3)c(C)c(-c3c(C)noc3CO)n2)c1` (stereo not drawn) [Example 145-3], the IC50 is below 100 nM.

As for `CNCC(O)COc1cccc(-c2nc(-c3c(C)noc3C)cc(N3CCN(C(=O)N(C)C)[C@H](C)C3)n2)c1` (stereo partly drawn) [Example 146-1a], the IC50 is below 100 nM.

For the molecule `CNC[C@@H](O)COc1ccc(Cl)c(-c2nc(NC3CC4(C3)CN(C(=O)OC)C4)c(C)c(-c3c(C)noc3C)n2)c1` [Example 146-3], the half-maximal inhibitory concentration (IC50) was below 100 nM.

On to `CNCC(O)COc1cccc(-c2nc(-c3c(C)noc3C)cc(N3CCN(S(C)(=O)=O)[C@H](C)C3)n2)c1` (stereo partly drawn) [Example 147-1a], for which the IC50 is below 100 nM.

Turning to `CNC[C@@H](O)COc1ccc(Cl)c(-c2nc(N[C@H]3CCN(C)C[C@H]3F)c(C)c(-c3c(C)noc3C)n2)c1` [Example 147-3], the IC50 was below 100 nM.

For the molecule `CNCC(O)COc1cccc(-c2nc(-c3c(C)noc3C)c(C)c(N3CCO[C@@H](CN(C)C)C3)n2)c1` (stereo partly drawn) [Example 148-1a], the IC50 was below 100 nM.

Turning to `CNC[C@@H](O)COc1ccc(Cl)c(-c2nc(N[C@H]3CO[C@@H](C)C3)c(Cl)c(-c3c(C)noc3C)n2)c1` [Example 148-3], the IC50 was below 100 nM.

For the molecule `CNCC(O)COc1cccc(-c2nc(-c3c(C)noc3C)c(C)c(N3CCO[C@@H](CN(C)C(=O)OC)C3)n2)c1` (stereo partly drawn) [Example 149-1a], the IC50 is below 100 nM.

As to `CNC[C@@H](O)COc1ccc(Cl)c(-c2nc(N[C@H]3CCO[C@@H](C)C3)c(Cl)c(-c3c(C)noc3C)n2)c1` [Example 149-3], the 50% inhibitory concentration (IC50) is below 100 nM.

As to `CNCC(O)COc1cccc(-c2nc(-c3c(C)noc3C)c(C)c(N3CCO[C@@H](CN(C)S(C)(=O)=O)C3)n2)c1` (stereo partly drawn) [Example 150-1a], the concentration for half-maximal inhibition (IC50) was below 100 nM.

For `CCOC(=O)N1CC[C@H](Nc2nc(-c3cc(OC[C@H](O)CNC)ccc3Cl)nc(-c3c(C)noc3C)c2C)C1` [Example 150-3], the concentration for half-maximal inhibition (IC50) is below 100 nM.

Regarding `CNCC(O)COc1cccc(-c2nc(-c3c(C)noc3C)c(C)c(N3CCO[C@H](CN(C)C)C3)n2)c1` (stereo partly drawn) [Example 151-1a], the IC50 was below 100 nM.

Consider `CCOC(=O)N1CC[C@H](Nc2nc(-c3cc(OC[C@H](O)CNC)ccc3Cl)nc(-c3c(C)noc3C)c2Cl)C1` [Example 151-3], for which the IC50 was below 100 nM.

As to `CC[C@@H]1CN(c2nc(-c3cccc(OCC(O)CNC)c3)nc(-c3c(C)noc3C)c2C)CCN1S(=O)(=O)CC` (stereo partly drawn) [Example 152-1a], the half-maximal inhibitory concentration (IC50) is below 100 nM.

Regarding `CNC[C@@H](O)COc1ccc(Cl)c(-c2nc(N[C@H]3CO[C@@H](C)C3)c(C)c(-c3c(C)noc3C)n2)c1` [Example 152-3], the half-maximal inhibitory concentration (IC50) was below 100 nM.

Regarding `CC[C@@H]1CN(c2nc(-c3cccc(OCC(O)CNC)c3)nc(-c3c(C)noc3C)c2C)CCN1S(C)(=O)=O` (stereo partly drawn) [Example 153-1a], the IC50 was below 100 nM.

Take `CCOC(=O)N1CCCC[C@@H]1CNc1nc(-c2cc(OC[C@H](O)CNC)ccc2Cl)nc(-c2c(C)noc2C)c1Cl` [Example 153-3]: the half-maximal inhibitory concentration (IC50) was below 100 nM.

In the case of `CC[C@H]1CN(c2nc(-c3cccc(OCC(O)CNC)c3)nc(-c3c(C)noc3C)c2C)CCN1S(=O)(=O)CC` (stereo partly drawn) [Example 154-1a], the IC50 was below 100 nM.

For the molecule `CCOC(=O)N1CCCC[C@@H]1CNc1nc(-c2cc(OC[C@H](O)CNC)ccc2Cl)nc(-c2c(C)noc2C)c1C` [Example 154-3], the 50% inhibitory concentration (IC50) was below 100 nM.

For the molecule `CC[C@H]1CN(c2nc(-c3cccc(OCC(O)CNC)c3)nc(-c3c(C)noc3C)c2C)CCN1S(C)(=O)=O` (stereo partly drawn) [Example 155-1a], the IC50 was below 100 nM.

In the case of `CNC[C@@H](O)COc1ccc(Cl)c(-c2nc(N[C@@H]3CCO[C@H](C)C3)c(Cl)c(-c3c(C)noc3C)n2)c1` [Example 155-3], the IC50 is below 100 nM.

Turning to `CNC[C@@H](O)COc1cccc(-c2nc(-c3c(C)noc3C)c(C)c(-c3cn(S(C)(=O)=O)c4ncncc34)n2)c1` [Example 156-1a], the IC50 was below 100 nM.

`CNC[C@@H](O)COc1ccc(Cl)c(-c2nc(-c3c(C)noc3C)c(C)c(N3Cc4cc(Cl)cnc4C3)n2)c1` [Example 156-3]: the half-maximal inhibitory concentration (IC50) is below 100 nM.

As to `CNCC(O)COc1cccc(-c2nc(NC(C)C3CCOCC3)c(C)c(-c3c(C)noc3C)n2)c1` (stereo not drawn) [Example 157-1a], the IC50 is below 100 nM.

Take `CNC[C@@H](O)COc1ccc(Cl)c(-c2nc(-c3c(C)noc3C)c(C)c(N3Cc4cc(F)cnc4C3)n2)c1` [Example 157-3]: the IC50 is below 100 nM.

For `CNC[C@@H](O)COc1ccc(Cl)c(-c2nc(-c3c(C)noc3C)c(C)c(N3CCC4(CC3)CN(C3CC3)C4)n2)c1` [Example 158-3], the IC50 was below 100 nM.

On to `CNCC(O)COc1cccc(-c2nc(NC3(C)CCOCC3)c(F)c(-c3c(C)noc3C)n2)c1` (stereo not drawn) [Example 159-1a], for which the IC50 was below 100 nM.

With `CNC[C@@H](O)COc1ccc(Cl)c(-c2nc(-c3c(C)noc3C)c(C)c(N3Cc4ccncc4C3)n2)c1` [Example 159-3], the 50% inhibitory concentration (IC50) is below 100 nM.

For `CNCC(O)COc1cccc(-c2nc(C(=O)NC3CCN(C)CC3)cc(-c3c(C)noc3C)n2)c1` (stereo not drawn) [Example 160-1a], the IC50 is below 100 nM.

As for `CNC[C@@H](O)COc1ccc(Cl)c(-c2nc(NC[C@H]3CCCN3C(=O)OC(C)C)c(C)c(-c3c(C)noc3C)n2)c1` [Example 160-3], the IC50 is below 100 nM.

For `CNCC(O)COc1cccc(-c2nc(-c3c(C)noc3C)c(C)c(N3CCN(C(=O)OCC(F)F)CC3)n2)c1` (stereo not drawn) [Example 161-1a], the IC50 was below 100 nM.

As for `CCOC(=O)N1CCOC[C@@H]1COc1nc(-c2cc(OC[C@H](O)CNC)ccc2Cl)nc(-c2c(C)noc2C)c1C` [Example 161-3], the IC50 was below 100 nM.

With `CNCC(O)COc1cccc(-c2nc(-c3c(C)noc3C)c(C)c(N3CC[C@H](C(=O)N(C)C)C3)n2)c1` (stereo partly drawn) [Example 162-1a], the IC50 was below 100 nM.

Regarding `CNC[C@@H](O)COc1ccc(Cl)c(-c2nc(N[C@@H]3CO[C@@H](C)C3)c(C)c(-c3c(C)noc3C)n2)c1` [Example 162-3], the IC50 was below 100 nM.

For the molecule `CNCC(O)COc1cccc(-c2nc(N[C@@H]3CC[C@H](O)C3)c(C)c(-c3c(C)noc3C)n2)c1` (stereo partly drawn) [Example 163-1a], the IC50 was below 100 nM.

As for `CNC[C@@H](O)COc1ccc(Cl)c(-c2nc(-c3c(C)noc3C)c(C)c(N3CC(CO)(CO)C3)n2)c1` [Example 163-3], the concentration for half-maximal inhibition (IC50) was below 100 nM.

In the case of `CNCC(O)COc1cccc(-c2nc(-c3c(C)noc3C)c(C)c(N3C[C@@H](C)O[C@@H](C)C3)n2)c1` (stereo partly drawn) [Example 164-1a], the IC50 is below 100 nM.

Regarding `CNC[C@@H](O)COc1ccc(F)c(-c2nc(-c3c(C)noc3C)c(C)c(N3Cc4cc(F)cnc4C3)n2)c1` [Example 164-3], the IC50 was below 100 nM.

With `CNCC(O)COc1cccc(-c2nc(-c3c(C)noc3C)cc(N3CCN(n4c(C)nnc4C)CC3)n2)c1` (stereo not drawn) [Example 165-1a], the IC50 is below 100 nM.

As for `CNCC(O)COc1cccc(-c2nc(-c3c(C)noc3C)cc(N3CCN(C4CCOCC4)CC3)n2)c1` (stereo not drawn) [Example 166-1a], the IC50 was below 100 nM.

Turning to `CCS(=O)(=O)N1CCCC(CNc2nc(-c3cccc(OCC(O)CNC)c3)nc(-c3c(C)noc3C)c2C)C1` (stereo not drawn) [Example 167-1a], the IC50 is below 100 nM.

Regarding `CNC[C@@H](O)COc1ccc(Cl)c(-c2nc(N[C@@H]3CCN(C4CC4)C[C@@H]3F)c(C)c(-c3c(C)noc3C)n2)c1` [Example 167-3], the IC50 is below 100 nM.
